Laboratory results published in patent US12129246B1, “Hydroquinazoline derivatives for the treatment of a disease or disorder” (Novartis AG, priority 2023, dated 2024).
Where two headings read alike, the source gives them in different places.

How the values were obtained:
[1] = biological target: monkey NPR1 (Macaca fascicularis, UniProt A0A7N9DBT9); experiment: Cellular cGMP production assay, monkey NPR1 expressing CHO-K1 cells (CisBio HTRF); assay type: cell-based; settings: for Monkey NPR1 Amax (% of ANP): maximum cGMP production as percentage of the maximum cGMP produced with ANP
Experimental: (§1) Cellular cGMP is a major second messenger that mediates cell activities and is synthesized by activated NPR1 triggered by binding of the natural ligand ANP. […] The assay was performed according to manufacturer's instructions with minor deviations. […] All compound stocks were diluted in PBS+0.1% BSA at 2-fold the final assay concentration. After addition of 10 μL/well of assay buffer (PBS+0.1% BSA+1 mM IBMX) and 10 μL/well of the compounds in different concentrations (12-point dose-response with 3-fold dilutions from a top concentration of 30 μM), the plate was incubated for 30 min at 37° C. to allow for cGMP production. In parallel, a standard curve using a calibrator (contained in the kit) was generated. The cells were lysed and a mix of cGMP-d2 and anti-cGMP-cryptate was added and incubated for 1 h at room temperature. The readout was performed using an Envision plate reader (PerkinElmer) with an excitation wavelength of 317 nm and an emission wavelength of 665 nm. cGMP concentration (Delta F [° %]) was calculated according to the following formulae: […]

[2] = biological target: T1, human NPR1 (Homo sapiens, UniProt P16066); experiment: Cellular cGMP production assay, human NPR1 expressing CHO-K1 cells (CisBio HTRF); assay type: cell-based; settings: for AC50: cGMP production, 30 min at 37° C., 12-point dose-response from 30 μM; for Human NPR1 Amax (% of ANP): maximum cGMP production as percentage of the maximum cGMP produced with ANP
T1 construct: host or cells: CHO-K1
T1 sequence (P16066 33-1061): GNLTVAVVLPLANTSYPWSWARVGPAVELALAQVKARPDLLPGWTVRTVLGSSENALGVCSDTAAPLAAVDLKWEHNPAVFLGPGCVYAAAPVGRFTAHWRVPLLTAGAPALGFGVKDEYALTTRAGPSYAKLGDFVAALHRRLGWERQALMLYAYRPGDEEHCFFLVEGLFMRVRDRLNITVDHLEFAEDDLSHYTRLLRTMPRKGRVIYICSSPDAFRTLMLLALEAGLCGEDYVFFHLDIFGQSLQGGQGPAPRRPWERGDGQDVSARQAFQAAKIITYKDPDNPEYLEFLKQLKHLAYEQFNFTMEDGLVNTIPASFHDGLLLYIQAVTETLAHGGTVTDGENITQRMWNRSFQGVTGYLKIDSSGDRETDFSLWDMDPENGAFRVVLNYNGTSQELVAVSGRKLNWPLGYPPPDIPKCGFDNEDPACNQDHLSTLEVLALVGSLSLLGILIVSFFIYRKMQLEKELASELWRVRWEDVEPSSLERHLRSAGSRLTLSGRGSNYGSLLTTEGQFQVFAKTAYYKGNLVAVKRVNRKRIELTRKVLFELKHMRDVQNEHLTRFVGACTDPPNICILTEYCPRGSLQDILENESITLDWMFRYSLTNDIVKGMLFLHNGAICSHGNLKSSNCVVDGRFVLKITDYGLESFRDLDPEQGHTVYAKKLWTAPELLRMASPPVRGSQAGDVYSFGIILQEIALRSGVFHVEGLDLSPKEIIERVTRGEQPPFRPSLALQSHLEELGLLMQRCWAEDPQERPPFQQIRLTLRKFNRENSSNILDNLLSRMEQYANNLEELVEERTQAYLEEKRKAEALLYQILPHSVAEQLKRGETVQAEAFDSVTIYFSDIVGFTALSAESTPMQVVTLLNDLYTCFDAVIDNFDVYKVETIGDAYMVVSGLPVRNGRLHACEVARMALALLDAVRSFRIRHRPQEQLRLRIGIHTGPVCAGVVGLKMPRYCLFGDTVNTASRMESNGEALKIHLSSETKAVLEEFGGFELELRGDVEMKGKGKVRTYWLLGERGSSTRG
Experimental: as §1

[3] = cGMP production, monkey NPR1 CHO-K1 cells, 30 min at 37° C., 12-point dose-response from 30 μM, read-out: Monkey NPR1 AC50

Sequence of monkey NPR1 (A0A7N9DBT9 entry or part of it): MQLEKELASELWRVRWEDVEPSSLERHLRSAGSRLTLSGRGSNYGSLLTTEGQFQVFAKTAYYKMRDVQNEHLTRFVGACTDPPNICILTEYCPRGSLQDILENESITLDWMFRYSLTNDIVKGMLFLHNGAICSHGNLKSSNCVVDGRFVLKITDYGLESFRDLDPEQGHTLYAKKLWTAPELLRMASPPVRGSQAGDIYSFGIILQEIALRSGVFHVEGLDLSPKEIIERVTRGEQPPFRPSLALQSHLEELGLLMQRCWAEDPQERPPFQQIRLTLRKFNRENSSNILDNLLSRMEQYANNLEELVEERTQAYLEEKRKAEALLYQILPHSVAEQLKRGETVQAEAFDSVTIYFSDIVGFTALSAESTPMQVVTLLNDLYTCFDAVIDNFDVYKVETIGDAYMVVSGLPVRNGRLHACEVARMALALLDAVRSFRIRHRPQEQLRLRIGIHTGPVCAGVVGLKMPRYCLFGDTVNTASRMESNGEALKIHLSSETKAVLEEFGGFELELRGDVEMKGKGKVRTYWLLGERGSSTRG

Compound	AC50 [1, 3] [µM]	Monkey NPR1 Amax (% of ANP) ([1]; monkey NPR1 CHO-K1 cells)	AC50 [2] [µM]	Human NPR1 Amax (% of ANP) [2]	AC50 [1] [µM]
CC[C@@H]([C@H]1CC[C@@](F)(C(=O)O)CC1)N(C)c1nc2c(c(N[C@H](CN3CCC[C@@H](C)C3)c3cnn(C)c3)n1)C[C@@H](c1ccccc1)CC2 [Compound 21, (1S,4r)-1-fluoro-4-((S)-1-(methyl((S)-4-(((S)-1-(1-methyl-1H-pyrazol-4-yl)-2-((R)-3-methylpiperidin-1-yl)ethyl)amino)-6-phenyl-5,6,7,8-tetrahydroquinazolin-2-yl)amino)propyl)cyclohexane-1-carboxylic acid]	0.093	101.974 % of ANP	0.111	96.122 % of ANP	
CC[C@@H](N(C)c1nc2c(c(N[C@@H](CN3CCC[C@H](C)C3)c3cc(C)nn3C)n1)C[C@H](c1ccccc1)CC2)C12CC(C(=O)O)(C1)C2 [Compound 140, 3-(1-(((R)-4-(((S)-1-(1,3-dimethyl-1H-pyrazol-5-yl)-2-((S)-3-methylpiperidin-1-yl)ethyl)amino)-6-phenyl-5,6,7,8-tetrahydroquinazolin-2-yl)(methyl)amino)-1l3-propyl)bicyclo[1.1.1]pentane-1-carboxylic acid]	0.499	96.883 % of ANP	0.885	89.152 % of ANP	
CC[C@@H](N(C)c1nc2c(c(N[C@@H](CN3C4CCCC3CCC4)c3cnn(C)c3)n1)C[C@H](c1ccc(F)cc1)CC2)C12CC(C(=O)O)(C1)C2 [Compound 11, 3-((R)-1-(((R)-4-(((R)-2-((1S,5S)-9-azabicyclo[3.3.1]nonan-9-yl)-1-(1-methyl-1H-pyrazol-4-yl)ethyl)amino)-6-(4-fluorophenyl)-5,6,7,8-tetrahydroquinazolin-2-yl)(methyl)amino)propyl)bicyclo[1.1.1]pentane-1-carboxylic acid]		113.853 % of ANP	0.094	103.738 % of ANP	0.07
CC[C@H]([C@H]1CC[C@H](C(=O)O)CC1)N(C)c1nc2c(c(N[C@@H](CN3CC4CCC3C4)c3cnn(C)c3)n1)C[C@H](c1ccccc1)CC2 (stereo partly drawn) [Compound 128, (1R,4r)-4-((1R)-1-(((6R)-4-(((1R)-2-(2-azabicyclo[2.2.1]heptan-2-yl)-1-(1-methyl-1H-pyrazol-4-yl)ethyl)amino)-6-phenyl-5,6,7,8-tetrahydroquinazolin-2-yl)(methyl)amino)propyl)cyclohexane-1-carboxylic acid]	0.416	95.117 % of ANP	0.629	105.430 % of ANP	
CC[C@H]([C@H]1CC[C@H](C(=O)O)CC1)N(C)c1nc2c(c(N[C@@H](CN3CCCC[C@@H]3CO)c3cnn(C)c3)n1)C[C@H](c1ccccc1)CC2 [Compound 149, (1R,4r)-4-((R)-1-(((R)-4-(((R)-2-((R)-2-(hydroxymethyl)piperidin-1-yl)-1-(1-methyl-1H-pyrazol-4-yl)ethyl)amino)-6-phenyl-5,6,7,8-tetrahydroquinazolin-2-yl)(methyl)amino)propyl)cyclohexane-1-carboxylic acid]	1.02	164.167 % of ANP	1.14	130.209 % of ANP	
CC[C@H]([C@H]1CC[C@H](C(=O)O)CC1)N(C)c1nc2c(c(N[C@@H](CN3C4CCCC3CC(O)C4)c3ccccc3)n1)C[C@H](c1ccccc1)CC2 (stereo partly drawn) [Compound 112, (1R,4r)-4-((1R)-1-(((6R)-4-(((1R)-2-((1R,5S)-3-hydroxy-9-azabicyclo[3.3.1]nonan-9-yl)-1-phenylethyl)amino)-6-phenyl-5,6,7,8-tetrahydroquinazolin-2-yl)(methyl)amino)propyl)cyclohexane-1-carboxylic acid]		97.009 % of ANP	0.427	90.394 % of ANP	0.394
CC[C@H]([C@H]1CC[C@H](C(=O)O)CC1)N(C)c1nc2c(c(N[C@@H](CN3CCCCC3)c3cnn(CC4CC4)c3)n1)C[C@H](c1ccccc1)CC2 [Compound 147, (1R,4r)-4-((R)-1-(((R)-4-(((R)-1-(1-(cyclopropylmethyl)-1H-pyrazol-4-yl)-2-(piperidin-1-yl)ethyl)amino)-6-phenyl-5,6,7,8-tetrahydroquinazolin-2-yl)(methyl)amino)propyl)cyclohexane-1-carboxylic acid]	0.671	101.537 % of ANP	1.08	97.612 % of ANP	
CC[C@@H](Nc1nc2c(c(N[C@@H](CN3C[C@H]4CC[C@@H]3C4)c3cnn(CC)c3)n1)C[C@H](c1ccccc1)CC2)[C@H]1CC[C@H](C(=O)O)CC1 [Compound 122, (1R,4r)-4-((R)-1-(((R)-4-(((R)-2-((1R,4S)-2-azabicyclo[2.2.1]heptan-2-yl)-1-(1-ethyl-1H-pyrazol-4-yl)ethyl)amino)-6-phenyl-5,6,7,8-tetrahydroquinazolin-2-yl)amino)propyl)cyclohexane-1-carboxylic acid]	0.411	99.605 % of ANP	0.574	102.209 % of ANP	
O=C(O)[C@H]1CC[C@H](C(CC2CC2)Nc2nc3c(c(N[C@@H](CN4CCCC4)c4ccccc4)n2)CC(c2ccccc2)CC3)CC1 (stereo partly drawn) [Compound 139, (1R,4r)-4-((1R)-2-cyclopropyl-1-((6-phenyl-4-(((R)-1-phenyl-2-(pyrrolidin-1-yl)ethyl)amino)-5,6,7,8-tetrahydroquinazolin-2-yl)amino)ethyl)cyclohexane-1-carboxylic acid]	0.696	111.911 % of ANP	0.876	105.089 % of ANP	
CC[C@@H](N(C)c1nc2c(c(N[C@@H](CN3CCC[C@H](C)C3)c3cnn(C)c3)n1)C[C@](C)(c1ccccc1)CC2)C12CC(C(=O)O)(C1)C2 [Compound 8, 3-((R)-1-(methyl((R)-6-methyl-4-(((R)-1-(1-methyl-1H-pyrazol-4-yl)-2-((S)-3-methylpiperidin-1-yl)ethyl)amino)-6-phenyl-5,6,7,8-tetrahydroquinazolin-2-yl)amino)propyl)bicyclo[1.1.1]pentane-1-carboxylic acid]	0.077	101.778 % of ANP	0.087	92.409 % of ANP	
CC[C@H]([C@H]1CC[C@H](C(=O)O)CC1)N(C)c1nc2c(c(N[C@@H](CN3CCC[C@H](C)C3)c3cnn(C)c3)n1)CN(c1cccc(Cl)c1)CC2 [Compound 170, (1R,4r)-4-((R)-1-((6-(3-chlorophenyl)-4-(((R)-1-(1-methyl-1H-pyrazol-4-yl)-2-((S)-3-methylpiperidin-1-yl)ethyl)amino)-5,6,7,8-tetrahydropyrido[4,3-d]pyrimidin-2-yl)(methyl)amino)propyl)cyclohexane-1-carboxylic acid]	0.79	124.109 % of ANP	2.74	97.591 % of ANP	
CC[C@H]([C@H]1CC[C@H](C(=O)O)CC1)N(C)c1nc2c(c(N[C@@H](CN3CCC[C@@H](C)C3)c3cnn(C)c3)n1)C[C@H](c1ccccc1)CC2 [Compound 125, (1R,4r)-4-((R)-1-(methyl((R)-4-(((R)-1-(1-methyl-1H-pyrazol-4-yl)-2-((R)-3-methylpiperidin-1-yl)ethyl)amino)-6-phenyl-5,6,7,8-tetrahydroquinazolin-2-yl)amino)propyl)cyclohexane-1-carboxylic acid]	0.41	114.072 % of ANP	0.619	106.130 % of ANP	
